From patent publication US20240238220A1, “METHODS FOR TREATING CANCERS” (priority 2023, published 2024)
pIC50: −log10 of the molar value.

Tests used:
[1] = tested on: lung cancer cells, A549, H1299, H1975, CL1-5, and PC-9; assay: methylene blue dye assay, growth of lung cancer cells; type: cell-based; settings: Homo sapiens; range over A549, H1299, H1975, CL1-5, PC-9; treated 1-5 μM for 1, 2 or 3 days; read-out: IC50 values (50% inhibition of cell viability)
Description: The effects of Compound A and Compound B on the growth of tumor cells were investigated in A549 (adenocarcinomic human alveolar epithelial cell), H1299 (human non-small cell lung carcinoma cell), H1975 (human non-small cell lung carcinoma cell), CL1-5 (human lung adenocarcinoma cell), and PC-9 (human lung adenocarcinoma cell) cell lines. A methylene blue dye assay (G. J. Finlay et al., Anal Biochem. 1984 June; 139(2):272-7) (11) was used to evaluate the inhibitory effect of Compound A and Compound B. Briefly, each of the cell lines with a logarithmic growth phase was cultured at a density of 2×10^4 to 4×10^4 cells per well in a 24-well plate, and treated with 1-5 μM of Compound A or Compound B for 1, 2, or 3 days. At the end of the incubation period, cells were fixed and stained with 0.5% methylene blue containing 50% ethanol for 30 minutes and then were washed and dried. The resulting colored residues were dissolved in 1% N-lauroyl-sarcosine, and optical density was read at 595 nm using a microplate reader. The IC50 value resulting from 50% inhibition of cell viability was calculated graphically as a comparison with vehicle control group. Each point represents the average of at least 3 independent experiments run in quadruple.

[2] = tested on: TC-1 tumor (mouse lung epithelial cancer cells); assay: mouse model bearing TC-1 tumor; type: in vivo, C57BL/6 mice; settings: oral gavage 120 mg/Kg/day, p<0.05
Description: (§1) The anti-tumor activity of Compound A was evaluated in the human NSCLC xenograft model. Nude mice and C57BL/6 mice were subcutaneously inoculated with H1299 (1×10^6) and mouse lung epithelial cancer cells, TC-1 (2×10^5), respectively. Tumor volumes were measured beginning on day 4 or 5 after tumor inoculation according to the relationship (L×D^2)/2, where L is the long dimension and D is the short dimension. The xenograft tumor-bearing mice were administered by oral gavage with compound A (dissolved in 10% dimethyl sulfoxide (DMSO)/cottonseed oil) at 120 mg/Kg/day for consecutive 5 days of the week. Animal body weight and tumor size were measured twice weekly. ANOVA followed by a multiple comparison Scheff test was conducted to determine significant differences among the treatment group at p<0.05.

H1299 tumor = assay: human NSCLC xenograft model bearing H1299 tumor; type: in vivo, Nude mice; settings: oral gavage 120 mg/Kg/day; for tumor regression: 5 consecutive days of the week
Description: as §1

Row | Structure (SMILES) | pIC50 [1] | inhibitory activity on tumor [2] | inhibitory activity on tumor (H1299 tumor; H1299 tumor, p<0.05) | tumor regression (H1299 tumor; day 35) | tumor regression (H1299 tumor; day 50)
1 | COc1ccc(/C=C/C(=O)C(F)(CC2CCC2)C(=O)/C=C/c2ccc(OC)c(OC)c2)cc1OC [Compound A, 4-fluoro-4-cyclobutylmethyl-1,7-bis(3,4-dimethoxyphenyl)hepta-1,6-diene-3,5-dione] | 5.52 to 5.82 | statistically significant inhibitory activity | statistically significant inhibitory activity | around 36% | around 43%
2 | COc1ccc(/C=C/C(=O)C(CC2CCC2)C(=O)/C=C/c2ccc(OC)c(OC)c2)cc1OC [Compound B, 4-(cyclobutylmethyl)-1,7-bis(3,4-dimethoxyphenyl)hepta-1,6-diene-3,5-dione] | 5.48 to 5.70 |  |  |  | 
